Assay results reported in patent US5578477A, “Identification and characterization of inhibtors of protein farnesyltransferase” (Arch Development Corporation, priority 1993, dated 1996).
Each block holds one molecule with its values, some of them ahead of it. Peptide text beside a SMILES is read from it.

Key:
yeast FTase = target: T1, yeast FTase (Saccharomyces cerevisiae, UniProt P22007+P29703); test: Prenyltransferase (FTase) assay with [3H]Fpp and GST-CIIS, purified yeast FTase; assay type: biochemical; conditions: for inhibition of FTase activity by salts: 100 mM salt
T1 construct: FTase was purified from SP1 cells carrying plasmids pBH28 and YEpDPR1 as described herein; made in house; host or cells: Saccharomyces cerevisiae SP1 carrying YEpDPR1 and pBH28
T1 sequence (P22007 1-431): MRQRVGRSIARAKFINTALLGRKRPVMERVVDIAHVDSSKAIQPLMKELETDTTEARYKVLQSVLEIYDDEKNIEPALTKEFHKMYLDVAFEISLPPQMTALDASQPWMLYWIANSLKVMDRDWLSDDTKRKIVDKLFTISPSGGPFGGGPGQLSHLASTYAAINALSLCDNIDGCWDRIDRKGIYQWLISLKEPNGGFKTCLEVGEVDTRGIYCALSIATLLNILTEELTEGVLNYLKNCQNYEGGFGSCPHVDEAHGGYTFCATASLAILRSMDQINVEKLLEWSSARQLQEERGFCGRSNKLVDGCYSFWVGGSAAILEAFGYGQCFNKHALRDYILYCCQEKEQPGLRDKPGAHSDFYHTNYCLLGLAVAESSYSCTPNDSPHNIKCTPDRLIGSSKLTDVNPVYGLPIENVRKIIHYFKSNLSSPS
T1 sequence (P29703 1-316): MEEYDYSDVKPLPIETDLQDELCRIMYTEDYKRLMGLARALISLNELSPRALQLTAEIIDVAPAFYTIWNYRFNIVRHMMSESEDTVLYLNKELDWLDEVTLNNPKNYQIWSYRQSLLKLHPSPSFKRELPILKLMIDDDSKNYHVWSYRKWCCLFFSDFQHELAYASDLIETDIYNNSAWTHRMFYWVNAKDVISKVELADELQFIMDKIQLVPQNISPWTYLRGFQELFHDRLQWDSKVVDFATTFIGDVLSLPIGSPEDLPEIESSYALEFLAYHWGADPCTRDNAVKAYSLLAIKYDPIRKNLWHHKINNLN
Protocol: Prenyltransferase assays were performed essentially as described in Goodman et al., 1990; Finegold et al., 1991. Briefly, the reaction mixture (20 μl) contained 50 mM potassium phosphate, pH 7.4 (or 50 mM Tris/HCl, pH 8.0), 10 mMMgCl2, 5 mM DTT, 5 μM ZnCl2, 0.8-1.12 μM [^3 H] farnesyl pyrophosphate (Fpp) (20 Ci/mmol; New England Nuclear) or [^3 H] geranylgeranyl pyrophosphate (GGpp) (20 Ci/mmol; New England Nuclear, Boston, Mass.), 19 μg of GST-CIIS or 30 μg of GST-CIIL protein and enzymes. Incubation was carried out at 37° C., and the radioactivity incorporated was determined by spotting the reaction mixture onto a filter paper, treating with 10% trichloroacetic acid, followed by ethanol and acetone washing.
Reaction mixture (20 μl) for results shown in open squares contained 1.12 μM [^3 H] Fpp, 4.38 ng FTase, 19 μM GST-CIIS, 0.1 mM EDTA and the indicated concentration of MgCl2. Reaction mixtures (20 μl) for results shown in closed diamond contained 0.1 mM ZnCl2 in addition to the above. Incubation was carried out for 10 minutes at 37° C. and radioactivity incorporated was determined as described herein.
Substrate specificity of yeast FTase was investigated by comparing incorporation of Fpp or GGpp into two different substrate proteins, GST-CIIS (.quadrature.) and GST-CIIL (.circle-solid.). […] The reaction mixture (20 μl) contained 1.12 μM [^3 H] Fpp, 20 ng FTase, and the indicated concentrations of either GST-CIIS or GST-CIIL1 protein. Incubations were carried out for 10 minutes at 37° C. and the radioactivity incorporated was measured as described herein.
Dilution of the peptides was made in 10 mM DTT. Incubation was carried out for 10 minutes at 37° C. and the radioactivity incorporated was determined as described herein.

yeast PFT = target: T2, yeast PFT (Saccharomyces cerevisiae, UniProt P22007+P29703); test: Farnesyltransferase assay using RAS2CT1 protein and [3H]Fpp, without dithiothreitol; assay type: biochemical, S. cerevisiae
T2 construct: FTase was purified from SP1 cells carrying plasmids pBH28 and YEpDPR1 as described herein; made in house; host or cells: Saccharomyces cerevisiae SP1 carrying YEpDPR1 and pBH28
T2 sequence (P22007 1-431): T1 sequence (P22007 1-431)
T2 sequence (P29703 1-316): T1 sequence (P29703 1-316)
Protocol: (§1) Farnesyltransferase assay. FTase from S. cerevisiae was purified from yeast cells overexpressing DPR1 and RAM2 as described herein. Rat brain FTase was partially purified by the method described by Reiss et al. PGGT purified from bovine brain was a gift of Drs. M. Gelb and K. Yokoyama (Univ. of Washington). FTase assays were carried out using RAS2CT1 protein and [^3 H]Fpp according to the method described herein except that Tris-HCl(pH8) was used instead of phosphate buffer. PGGT assays were carried out using GST-CIIL protein and [^3 H]GGpp as described herein except that Tris-HCl(pH7.4) was used instead of phosphate buffer. […] Incubation was carried out at 37° C.
Inhibition of Farnesyltransferase.
To investigate the mechanism of inhibition by UCF1-C, kinetic analyses were carried out. […] The same Km value was observed when the Linewaver-Burke plot was analyzed under different ras and UCF1-C concentrations (.quadrature.=0 μM, .tangle-solidup.=10 μM, and .box-solid.=20 μM) in the presence of a constant concentration of Fpp.

PGGT I = target: T3, PGGT I (Bos taurus, UniProt P29702+Q5EAD5); test: PGGT assay using GST-CIIL protein and [3H]GGpp; assay type: biochemical, bovine
T3 construct: PGGT purified from bovine brain was a gift of Drs; M. Gelb and K. Yokoyama; tissue gift of Drs; M. Gelb and K. Yokoyama (Univ. of Washington); host or cells: bovine brain
Protocol: as §1
FIG. 6B compares the effect of UCF1-C on PGGT I and PFT.

Molecule: O=C(O)CN(CCN(CC(=O)O)CC(=O)O)CC(=O)O [EDTA]
- effect of EDTA addition on FTase activity (yeast FTase): dramatic inhibition

Molecule: CC(C)=CCC/C(C)=C/CC/C(C)=C/COP(=O)(O)OP(=O)(O)O [Fpp, farnesyl pyrophosphate]
- Km (yeast FTase; secondary plots, substrates Fpp and GST-CIIS varied): 8.1 µM

Molecule: [Cl-].[K+] [KCl]
- inhibition of FTase activity by salts (yeast FTase): Approximately 50%

Molecule: [Cl-].[Li+] [LiCl]
- inhibition of FTase activity by salts (yeast FTase): Approximately 50%

- IC50 (yeast FTase): 10 µM
Molecule: CSCC[C@H](NC(=O)[C@H](CC(C)C)NC(=O)[C@@H](NC(=O)[C@H](CS)NC(=O)[C@H](CS)NC(=O)[C@@H](NC(=O)[C@H](CO)NC(=O)[C@H](CC(N)=O)NC(=O)[C@H](CO)NC(=O)[C@@H](N)CC(N)=O)C(C)C)[C@@H](C)O)C(=O)O [MG13, NSNSVCCTLM] (H-NSNSVCCTLM-OH)

Molecule: [Cl-].[Na+] [NaCl]
- inhibition of FTase activity by salts (yeast FTase): Approximately 50%

- mechanism of inhibition with respect to Fpp (yeast PFT; Lineweaver-Burk, changes Km for Fpp, not Vmax): competitive inhibitor
- mechanism of inhibition with respect to ras protein (yeast PFT; Lineweaver-Burk, same Km for RAS2, constant Fpp): non-competitive inhibitor
- IC50 (yeast PFT; RAS2CT1, [3H]Fpp, Tris-HCl pH 8, no dithiothreitol, 37° C.): 5 µM
- Ki (yeast PFT; secondary plot of slopes against UCF1-C concentration, Fpp varied, constant ras): 1.2 µM
- PGGT I activity still detectable (PGGT I; 1 mM concentration): approximately 30%
- IC50 (PGGT I; GST-CIIL, [3H]GGpp, Tris-HCl pH 7.4, read-out: IC50 for PGGT I inhibition): 180 µM
Molecule: CCCC[C@@H](C)/C=C(C)/C=C(\C)C(=O)NC1=C[C@@](O)(/C=C/C=C/C=C/C(=O)NC2=C(O)CCC2=O)[C@@H]2O[C@@H]2C1=O [UCF1-C]

Molecule: EHWSYGLRPG [LHRH]
- inhibition of FTase activity by peptide (in words) (yeast FTase; control peptides of the same size, unrelated sequences): little inhibition
